Assay results as given in US4599424A, “5-substituted thiadiazole ureas and their use as herbicides” (priority 1979, dated 1986).

Columns and labels:
[1] = system: a variety of crops and weed species; test: Pre- and post-emergence herbicide tests, overall assessment of TABLES III-VI; format: in vivo; conditions: from data of TABLES III-VI
Procedure: (§1) All crop and weed species were planted individually in 3" plastic pots containing potting soil. Four seeds each of corn, cotton, and snapbeans were seeded to a depth equal to the diameter of the seed. All other species were surface seeded and sprinkled with screened soil in an amount sufficient to cover the seed. Immediately after planting, all pots were watered by sub-irrigation in greenhouse trays. Pots for the pre-emergence phase were seeded one day before treatment.
(§2) Planting dates for the post-emergence phase were varied so that all seedlings would reach the desired stage of development simultaneously. The proper stage of seedling development for treatment in the post-emergence phase is as follows:
(§3) Compounds were tested at rates of application equivalent to 8 lbs. of actual compound per acre in a spray volume of 38 gallons per acre. Spray hood constants required to deliver the above volume are as follows:
(§4) Two weeks after treatment, pre- and post-emergence injury or control was visually rated, and the results were as shown in the following tables. Pre-emergence data are provided in TABLE III and post-emergence data are provided in TABLE IV, for compounds having the formula illustrated in TABLE I. Correspondingly, pre-emergence and post-emergence data, respectively, are set forth in TABLES V AND VI, for compounds having the formula illustrated in TABLE II.
Typical of such compounds are: 1, 2, 5, 26, 36, and 37.

Corn (CN) [2] = test: Post-emergence herbicide test, corn; format: in vivo, Zea mays; conditions: two weeks
Procedure: as §1, §2, §3
(§5) Formulations for spray applications were prepared in 50 ml volumes with the following three components:
(§6) Formulations for the 4 lbs/acre rate were prepared by adjusting the amount of active ingredient accordingly.
(§7) Spray applications were made in a hood containing a removable belt and fixed spray nozzle. For passage through the spray hood, one pot of each specie (pre-emergence phase) was placed on the rear half of the flat. Treatments were removed to the greenhouse after spraying. Watering during the observation period was done only by sub-irrigation.
as §4

Bean (BN) [3] = test: Pre-emergence herbicide test, bean; format: in vivo, Phaseolus vulgaris var. Black Valentine; conditions: two weeks
Procedure: (§8) Bean (BN)--Phaseolus vulgaris var. Black Valentine
as §1, §3, §5, §6, §7, §4

Cotton (CT) [4] = test: Pre-emergence herbicide test, cotton; format: in vivo, Gossypium hirsutum var. DPL smooth leaf; conditions: two weeks
Procedure: (§9) Cotton (CT)--Gossypium hirsutum var. DPL smooth leaf
as §1, §3, §5, §6, §7, §4

Amaranth pigweed (PW) [5] = test: Post-emergence herbicide test, amaranth pigweed; format: in vivo, Amaranthus retroflexus; conditions: two weeks
Procedure: (§10) Amaranth pigweed (PW)--Amaranthus retroflexus
as §1, §2
(§11) Pigweed and turnips: 1 or 2 true leaves above visible cotyledons.
as §3, §5, §6, §7, §4

Barnyard grass (BG) [6] = test: Pre-emergence herbicide test, barnyard grass; format: in vivo, Echinochloa crus-galli; conditions: two weeks
Procedure: (§12) Barnyard grass (BG)--Echinochloa crus-galli
as §1, §3, §5, §6, §7, §4

Cotton (CT) [7] = test: Post-emergence herbicide test, cotton; format: in vivo, Gossypium hirsutum var. DPL smooth leaf; conditions: two weeks
Procedure: as §9, §1, §2
cotton: first true leaf 1" in length; expanded cotyledons.
(§13) Spray hood constants required to deliver the above volume are as follows:
as §5, §6, §7, §4

Turnip (TP) [8] = test: Post-emergence herbicide test, turnip; format: in vivo, Brassica sp.; conditions: two weeks
Procedure: (§14) Turnip (TP)--Brassica sp.
as §1, §2, §11, §13
(§15) Formulations for spray applications were prepared in 50 ml volumes with the following three components: […]
as §7, §4

Bean (BN) [9] = test: Post-emergence herbicide test, bean; format: in vivo, Phaseolus vulgaris var. Black Valentine; conditions: two weeks
Procedure: as §8, §1, §2
Beans: primary leaves expanded, growing point at primary leaf nodes.
as §13, §5, §6, §7, §4

Johnson grass (JG) [10] = test: Pre-emergence herbicide test, Johnson grass; format: in vivo, Sorgum helepense; conditions: two weeks
Procedure: (§16) Johnson grass (JG)--Sorgum helepense
as §1, §13, §15, §7, §4

[11] = system: Yellow foxtail grass (YF); test: Post-emergence herbicide test, yellow foxtail grass; format: in vivo, Setarin glauca; conditions: two weeks
Procedure: (§17) Yellow foxtail grass (YF)--Setarin glauca
as §1, §2, §3, §5, §6, §7, §4

Turnip (TP) [12] = test: Pre-emergence herbicide test, turnip; format: in vivo, Brassica sp.; conditions: two weeks
Procedure: as §14, §1, §13, §15, §7, §4

Corn (CN) [13] = test: Pre-emergence herbicide test, corn; format: in vivo, Zea mays; conditions: two weeks
Procedure: as §1, §3, §5, §6, §7, §4

Barnyard grass (BG) [14] = test: Post-emergence herbicide test, barnyard grass; format: in vivo, Echinochloa crus-galli; conditions: two weeks
Procedure: as §12, §1, §2, §13, §15, §7, §4

Crabgrass (CG) [15] = test: Post-emergence herbicide test, crabgrass; format: in vivo, Digitaria sanguinalis; conditions: two weeks
Procedure: (§18) Crabgrass (CG)--Digitaria sanguinalis
as §1, §2, §13, §15, §7, §4

Crabgrass (CG) [16] = test: Pre-emergence herbicide test, crabgrass; format: in vivo, Digitaria sanguinalis; conditions: two weeks
Procedure: as §18, §1, §13, §5, §6, §7, §4

Amaranth pigweed (PW) [17] = test: Pre-emergence herbicide test, amaranth pigweed; format: in vivo, Amaranthus retroflexus; conditions: two weeks
Procedure: as §10, §1, §3, §5, §6, §7, §4

[18] = system: Yellow foxtail grass (YF); test: Pre-emergence herbicide test, yellow foxtail grass; format: in vivo, Setarin glauca; conditions: two weeks
Procedure: as §17, §1, §13, §15, §7, §4

Johnson grass (JG) [19] = test: Post-emergence herbicide test, Johnson grass; format: in vivo, Sorgum helepense; conditions: two weeks
Procedure: as §16, §1, §2, §13, §15, §7, §4

SMILES: CCN(C(=O)NC)c1nnc(C(F)(F)F)s1 [Example 37]
- herbicidal effectiveness and selectivity (in words) [1]: extremely effective
- pest or weed control at 4483.4 g/ha (Corn (CN) [2]; Zea mays, post-emergence, 336 h, 4 lb/acre): 30%

SMILES: CNC(=O)N(C)c1nnc(C(C)(C)C)s1 [Example 42]
- PRE-EMERGENCE ACTIVITY, % CONTROL (Bean (BN) [3]; 2 lb/acre): 40%
- PRE-EMERGENCE ACTIVITY, % CONTROL (Bean (BN) [3]; 4 lb/acre): 90%
- PRE-EMERGENCE ACTIVITY, % CONTROL (Bean (BN) [3]; 8 lb/acre): 100%
- PRE-EMERGENCE ACTIVITY, % CONTROL (Cotton (CT) [4]; 2 lb/acre): 30%
- PRE-EMERGENCE ACTIVITY, % CONTROL (Cotton (CT) [4]; 4 lb/acre): 70%
- PRE-EMERGENCE ACTIVITY, % CONTROL (Cotton (CT) [4]; 8 lb/acre): 90%
- POST-EMERGENCE ACTIVITY, % CONTROL (Amaranth pigweed (PW) [5]; 2 lb/acre): 100%
- POST-EMERGENCE ACTIVITY, % CONTROL (Amaranth pigweed (PW) [5]; 4 lb/acre): 100%
- POST-EMERGENCE ACTIVITY, % CONTROL (Amaranth pigweed (PW) [5]; 8 lb/acre): 100%
- PRE-EMERGENCE ACTIVITY, % CONTROL (Barnyard grass (BG) [6]; 2 lb/acre): 80%
- PRE-EMERGENCE ACTIVITY, % CONTROL (Barnyard grass (BG) [6]; 4 lb/acre): 90%
- PRE-EMERGENCE ACTIVITY, % CONTROL (Barnyard grass (BG) [6]; 8 lb/acre): 90%
- POST-EMERGENCE ACTIVITY, % CONTROL (Cotton (CT) [7]; 2 lb/acre): 100%
- POST-EMERGENCE ACTIVITY, % CONTROL (Cotton (CT) [7]; 4 lb/acre): 100%
- POST-EMERGENCE ACTIVITY, % CONTROL (Cotton (CT) [7]; 8 lb/acre): 100%
- POST-EMERGENCE ACTIVITY, % CONTROL (Turnip (TP) [8]; 2 lb/acre): 100%
- POST-EMERGENCE ACTIVITY, % CONTROL (Turnip (TP) [8]; 4 lb/acre): 100%
- POST-EMERGENCE ACTIVITY, % CONTROL (Turnip (TP) [8]; 8 lb/acre): 100%
- POST-EMERGENCE ACTIVITY, % CONTROL (Bean (BN) [9]; 2 lb/acre): 80%
- POST-EMERGENCE ACTIVITY, % CONTROL (Bean (BN) [9]; 4 lb/acre): 100%
- POST-EMERGENCE ACTIVITY, % CONTROL (Bean (BN) [9]; 8 lb/acre): 100%
- PRE-EMERGENCE ACTIVITY, % CONTROL (Johnson grass (JG) [10]; 2 lb/acre): 70%
- PRE-EMERGENCE ACTIVITY, % CONTROL (Johnson grass (JG) [10]; 4 lb/acre): 90%
- PRE-EMERGENCE ACTIVITY, % CONTROL (Johnson grass (JG) [10]; 8 lb/acre): 100%
- POST-EMERGENCE ACTIVITY, % CONTROL ([11]; 2 lb/acre): 90%
- POST-EMERGENCE ACTIVITY, % CONTROL ([11]; 4 lb/acre): 90%
- POST-EMERGENCE ACTIVITY, % CONTROL ([11]; 8 lb/acre): 100%
- PRE-EMERGENCE ACTIVITY, % CONTROL (Turnip (TP) [12]; 2 lb/acre): 100%
- PRE-EMERGENCE ACTIVITY, % CONTROL (Turnip (TP) [12]; 4 lb/acre): 90%
- PRE-EMERGENCE ACTIVITY, % CONTROL (Turnip (TP) [12]; 8 lb/acre): 100%
- PRE-EMERGENCE ACTIVITY, % CONTROL (Corn (CN) [13]; 2 lb/acre): 0%
- PRE-EMERGENCE ACTIVITY, % CONTROL (Corn (CN) [13]; 4 lb/acre): 60%
- PRE-EMERGENCE ACTIVITY, % CONTROL (Corn (CN) [13]; 8 lb/acre): 90%
- POST-EMERGENCE ACTIVITY, % CONTROL (Barnyard grass (BG) [14]; 2 lb/acre): 90%
- POST-EMERGENCE ACTIVITY, % CONTROL (Barnyard grass (BG) [14]; 4 lb/acre): 90%
- POST-EMERGENCE ACTIVITY, % CONTROL (Barnyard grass (BG) [14]; 8 lb/acre): 100%
- POST-EMERGENCE ACTIVITY, % CONTROL (Crabgrass (CG) [15]; 2 lb/acre): 40%
- POST-EMERGENCE ACTIVITY, % CONTROL (Crabgrass (CG) [15]; 4 lb/acre): 70%
- POST-EMERGENCE ACTIVITY, % CONTROL (Crabgrass (CG) [15]; 8 lb/acre): 100%
- POST-EMERGENCE ACTIVITY, % CONTROL (Corn (CN) [2]; 2 lb/acre): 70%
- POST-EMERGENCE ACTIVITY, % CONTROL (Corn (CN) [2]; 4 lb/acre): 70%
- POST-EMERGENCE ACTIVITY, % CONTROL (Corn (CN) [2]; 8 lb/acre): 100%
- PRE-EMERGENCE ACTIVITY, % CONTROL (Crabgrass (CG) [16]; 2 lb/acre): 90%
- PRE-EMERGENCE ACTIVITY, % CONTROL (Crabgrass (CG) [16]; 4 lb/acre): 90%
- PRE-EMERGENCE ACTIVITY, % CONTROL (Crabgrass (CG) [16]; 8 lb/acre): 90%
- PRE-EMERGENCE ACTIVITY, % CONTROL (Amaranth pigweed (PW) [17]; 2 lb/acre): 100%
- PRE-EMERGENCE ACTIVITY, % CONTROL (Amaranth pigweed (PW) [17]; 4 lb/acre): 100%
- PRE-EMERGENCE ACTIVITY, % CONTROL (Amaranth pigweed (PW) [17]; 8 lb/acre): 100%
- PRE-EMERGENCE ACTIVITY, % CONTROL ([18]; 2 lb/acre): 90%
- PRE-EMERGENCE ACTIVITY, % CONTROL ([18]; 4 lb/acre): 80%
- PRE-EMERGENCE ACTIVITY, % CONTROL ([18]; 8 lb/acre): 90%
- POST-EMERGENCE ACTIVITY, % CONTROL (Johnson grass (JG) [19]; 2 lb/acre): 70%
- POST-EMERGENCE ACTIVITY, % CONTROL (Johnson grass (JG) [19]; 4 lb/acre): 90%
- POST-EMERGENCE ACTIVITY, % CONTROL (Johnson grass (JG) [19]; 8 lb/acre): 100%
